Our source for the Ki values is EP0910563B1, “INTEGRIN RECEPTOR ANTAGONISTS” (SMITHKLINE BEECHAM CORPORATION, priority 1995, dated 1997).

Assay [1] has as its target T1, fibrinogen receptor (αIIbβ3) (Homo sapiens, UniProt P05106+P08514).
T1 construct: followed by the addition of 1 µg of the purified platelet αIIbβ3-containing liposomes; tissue Red Cross (platelets); host or cells: outdated, washed human platelets; lentil lectin sepharose purification
Description: Competitive binding of [3H]-SK&F-107260 to αIIbβ3 in liposomes. The note with it: purified platelet αIIbβ3-containing liposomes, 4.5 nM [3H]-SK&F-107260. On the procedure:
Ten units of outdated, washed human platelets (obtained from Red Cross) were lyzed by gentle stirring in 3% octylglucoside, 20 mM Tris-HCl, pH 7.4, 140 mM NaCl, 2 mM CaCl2 at 4°C for 2 h. The lysate was centrifuged at 100,000g for 1 h. The supernatant obtained was applied to a 5 mL lentil lectin sepharose 4B column (E.Y. Labs) preequilibrated with 20 mM Tris-HCl, pH 7.4, 100 mM NaCI, 2 mM CaCl2, 1% octylglucoside (buffer A). After 2 h incubation, the column was washed with 50 mL cold buffer A. The lectin-retained αIIbβ3 was eluted with buffer A containing 10% dextrose. All procedures were performed at 4°C. The αIIbβ3 obtained was >95% pure as shown by SDS polyacrylamide gel electrophoresis. […]
The binding to the fibrinogen receptor (αIIbβ3) was assayed by an indirect competitive binding method using [^3H]-SK&F-107260 as an RGD-type ligand. […] Bound radioactivity remaining on the filters was counted in 1.5 mL Ready Solve (Beckman Instruments, Fullerton, CA) in a Beckman Liquid Scintillation Counter (Model LS6800), with 40% efficiency. Nonspecific binding was determined in the presence of 2 µM unlabeled SK&F-107260 and was consistently less than 0.14% of the total radioactivity added to the samples. […]
Competition binding data were analyzed by a nonlinear least-squares curve fitting procedure. […]

Assay [2] concerns the target T2, αvβ3 (Homo sapiens, UniProt P05106+P06756).
T2 construct: Human placenta or human platelet αvβ3 (0.1-0.3 mg/mL) in buffer T; from tissue; host or cells: human placenta or human platelets
Description: Solid-phase [3H]-SK&F-107260 binding to αvβ3 (inhibition of vitronectin binding). The note with it: human placenta or platelet αvβ3 on ELISA plates, 5.0 nM [3H]-SK&F-107260. On the procedure:
Solid-Phase [^3H]-SK&F-107260 Binding to αvβ3: Human placenta or human platelet αvβ3 (0.1-0.3 mg/mL) in buffer T (containing 2 mM CaCl2 and 1% octylglucoside) was diluted with buffer T containing 1 mM CaCl2, 1 mM MnCl2, 1 mM MgCl2 (buffer A) and 0.05% NaN3, and then immediately added to 96-well ELISA plates (Corning, New York, NY) at 0.1 mL per well. 0.1 - 0.2 µg of αvβ3 was added per well. The plates were incubated overnight at 4°C. At the time of the experiment, the wells were washed once with buffer A and were incubated with 0.1 mL of 3.5% bovine serum albumin in the same buffer for 1 hr at room temperature. Following incubation the wells were aspirated completely and washed twice with 0.2 mL buffer A. […]
The plates were incubated for 1 hr at room temperature. […] The receptors were solubilized with 0.1 mL of 1% SDS and the bound [^3H]-SK&F-107260 was determined by liquid scintillation counting with the addition of 3 mL Ready Safe in a Beckman LS Liquid Scintillation Counter, with 40% efficiency. Nonspecific binding of [^3H]-SK&F-107260 was determined in the presence of 2 µM SK&F-107260 and was consistently less than 1% of total radioligand input. […] The Ki (dissociation constant of the antagonist) was calculated according to the equation: Ki = IC50/(1 + L/Kd), where L and Kd were the concentration and the dissociation constant of [^3H]-SK&F-107260, respectively.

pKi: −log10 of the molar value.

T1 sequence (P08514 32-887 limits assumed): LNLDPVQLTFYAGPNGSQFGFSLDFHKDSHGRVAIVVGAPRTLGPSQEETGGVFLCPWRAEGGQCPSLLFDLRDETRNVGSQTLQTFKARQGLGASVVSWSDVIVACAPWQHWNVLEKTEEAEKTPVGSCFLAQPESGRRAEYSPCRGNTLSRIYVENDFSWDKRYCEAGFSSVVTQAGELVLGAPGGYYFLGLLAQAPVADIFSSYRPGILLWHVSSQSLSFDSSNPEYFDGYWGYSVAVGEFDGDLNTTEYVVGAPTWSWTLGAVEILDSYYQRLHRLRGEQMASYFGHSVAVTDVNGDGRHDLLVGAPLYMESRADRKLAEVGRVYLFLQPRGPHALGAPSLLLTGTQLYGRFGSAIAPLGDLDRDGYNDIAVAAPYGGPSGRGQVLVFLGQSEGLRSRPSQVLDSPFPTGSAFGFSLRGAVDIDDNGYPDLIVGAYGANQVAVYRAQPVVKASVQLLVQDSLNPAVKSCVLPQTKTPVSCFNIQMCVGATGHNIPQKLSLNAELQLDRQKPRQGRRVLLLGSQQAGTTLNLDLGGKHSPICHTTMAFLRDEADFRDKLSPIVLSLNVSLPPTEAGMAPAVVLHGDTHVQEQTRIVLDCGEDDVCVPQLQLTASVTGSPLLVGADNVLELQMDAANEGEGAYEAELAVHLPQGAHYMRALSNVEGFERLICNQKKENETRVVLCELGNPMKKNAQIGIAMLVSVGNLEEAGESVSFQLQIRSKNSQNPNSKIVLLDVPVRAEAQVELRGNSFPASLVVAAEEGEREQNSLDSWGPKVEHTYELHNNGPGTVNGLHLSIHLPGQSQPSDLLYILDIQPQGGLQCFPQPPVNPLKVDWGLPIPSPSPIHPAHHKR
T1 sequence (P08514 891-1039 partner limits assumed): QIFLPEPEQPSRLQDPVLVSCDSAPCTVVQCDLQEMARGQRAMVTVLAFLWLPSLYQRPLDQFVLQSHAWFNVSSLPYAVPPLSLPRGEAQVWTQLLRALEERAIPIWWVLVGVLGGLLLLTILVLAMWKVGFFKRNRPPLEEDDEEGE
T1 sequence (P05106 27-788): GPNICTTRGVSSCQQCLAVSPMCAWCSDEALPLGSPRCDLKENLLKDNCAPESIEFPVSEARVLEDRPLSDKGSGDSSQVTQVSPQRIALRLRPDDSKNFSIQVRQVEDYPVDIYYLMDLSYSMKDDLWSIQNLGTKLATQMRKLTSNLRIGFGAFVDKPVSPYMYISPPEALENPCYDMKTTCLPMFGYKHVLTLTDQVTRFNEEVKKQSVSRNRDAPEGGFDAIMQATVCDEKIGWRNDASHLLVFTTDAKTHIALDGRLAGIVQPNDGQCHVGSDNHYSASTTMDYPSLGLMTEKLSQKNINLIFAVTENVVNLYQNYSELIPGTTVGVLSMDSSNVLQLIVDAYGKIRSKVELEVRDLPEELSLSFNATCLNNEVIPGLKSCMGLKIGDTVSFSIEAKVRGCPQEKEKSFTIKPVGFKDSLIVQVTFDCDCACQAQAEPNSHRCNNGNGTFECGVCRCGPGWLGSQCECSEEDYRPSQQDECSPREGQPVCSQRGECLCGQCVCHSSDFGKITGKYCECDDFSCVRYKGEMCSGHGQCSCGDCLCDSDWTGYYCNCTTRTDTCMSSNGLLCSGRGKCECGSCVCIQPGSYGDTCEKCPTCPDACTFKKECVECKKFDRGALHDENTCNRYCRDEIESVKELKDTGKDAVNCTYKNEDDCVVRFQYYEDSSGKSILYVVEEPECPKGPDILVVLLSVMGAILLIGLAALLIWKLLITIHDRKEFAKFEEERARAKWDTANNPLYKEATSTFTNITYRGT
T2 sequence (P06756 31-889 limits assumed): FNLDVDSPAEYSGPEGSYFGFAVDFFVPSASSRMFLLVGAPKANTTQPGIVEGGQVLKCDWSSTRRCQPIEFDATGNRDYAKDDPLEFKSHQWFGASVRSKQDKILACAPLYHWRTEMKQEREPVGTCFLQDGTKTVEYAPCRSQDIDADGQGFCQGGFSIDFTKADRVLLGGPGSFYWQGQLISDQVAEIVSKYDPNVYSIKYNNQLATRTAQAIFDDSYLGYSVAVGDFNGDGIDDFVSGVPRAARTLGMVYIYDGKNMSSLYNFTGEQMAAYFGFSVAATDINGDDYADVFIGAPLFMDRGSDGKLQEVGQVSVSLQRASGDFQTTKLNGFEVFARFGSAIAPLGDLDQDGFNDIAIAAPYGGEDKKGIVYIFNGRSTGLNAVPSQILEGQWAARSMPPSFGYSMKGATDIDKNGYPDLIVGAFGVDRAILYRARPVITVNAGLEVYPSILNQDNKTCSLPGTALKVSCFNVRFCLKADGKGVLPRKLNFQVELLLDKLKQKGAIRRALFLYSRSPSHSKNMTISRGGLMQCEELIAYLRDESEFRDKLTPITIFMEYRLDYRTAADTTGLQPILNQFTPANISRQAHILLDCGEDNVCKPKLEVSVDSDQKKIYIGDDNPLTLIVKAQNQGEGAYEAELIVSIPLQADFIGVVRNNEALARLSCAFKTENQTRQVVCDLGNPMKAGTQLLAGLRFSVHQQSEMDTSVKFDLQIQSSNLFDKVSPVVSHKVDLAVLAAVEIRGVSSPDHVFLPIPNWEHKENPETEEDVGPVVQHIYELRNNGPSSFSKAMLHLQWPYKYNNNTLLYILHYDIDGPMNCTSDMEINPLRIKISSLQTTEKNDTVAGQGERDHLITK
T2 sequence (P06756 891-1048 partner limits assumed): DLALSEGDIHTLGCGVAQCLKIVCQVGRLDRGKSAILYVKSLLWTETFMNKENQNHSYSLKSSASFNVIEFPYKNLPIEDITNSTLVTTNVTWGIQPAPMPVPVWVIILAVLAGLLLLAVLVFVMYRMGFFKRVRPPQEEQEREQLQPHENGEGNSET
T2 sequence (P05106 27-788): as the sequence (P05106 27-788) above

The term pKi denotes the negative decadic logarithm of the Ki, by convention in mol/L. As to `CN(Cc1nc2ccccc2[nH]1)C(=O)c1ccc2c(c1)Cc1ccccc1C(CC(=O)O)C2` (racemic) [Example 1, (±)-10,11-dihydro-3-[[[(1H-benzimidazol-2-yl)methyl]methylamino]carbonyl]-5H-dibenzo[a,d]cycloheptene-10-acetic acid], the pKi in assay [1] is under 4.30; in assay [2], 7.64.
The corresponding values for `O=C(O)CC1Cc2ccc(C(=O)N3CCC(C4CCNCC4)CC3)cc2Cc2ccccc21` (racemic) [Example 2, (±)-10,11-dihydro-3-[1-(4,4'-bipiperidinyl)carbonyl]-5H-dibenzo[a,d]cycloheptene-10-acetic acid] are 8.05 and 4.82.
